For one assay, the system named is Proteus vulgaris 9920. The assay is described as follows: In vitro tube dilution test (MIC), Proteus vulgaris 9920. Format: cell-based. The settings on record: 18-20 hours at 37° C. The method, then: (§1) Nalidixic acid, the parent acid, and its 1,2-ethanediamine (1:1) salt were tested in vitro against ten screening organisms and they were also tested against the standard E. coli (Vogel) systemic infection in mice, the latter in vivo study being carried out using three different routes of administration: oral, subcutaneous and intravenous. The materials and methods used in the comparative antibacterial tests are given in the following paragraphs.
(§2) The parent nalidixic acid was solublized by adding 1.0 ml. of 1 N NaOH to the crystalline acid and water was added to a concentration of 1000 mcg./ml. for the in vitro study or saline to a concentration of 2.5 or 5.0 mg./ml. for the in vivo study. A stock solution of nalidixic acid 1,2-ethanediamine (1:1) salt was prepared from the 1:2 salt according to Example 5 above (refer to Solution 5B); in saline this solution has a concentration equivalent of the nalidixic acid of 47.6 mg./ml. for in vivo studies. A concentration equivalent of the acid of 1000 mcg./ml. for the in vitro studies was obtained by dilution of the stock solution. […]
(§3) The compounds were tested for antimicrobial activity by a single-row tube dilution method. […] Minimal inhibitory concentrations (lowest drug concentrations showing no visible growth, designated MIC) were read after eighteen-twenty hours incubation at 37° C. The molds were read after five days incubation at 25° C.

The subject of assay [1] is Streptococcus pyogenes C203. The assay is described as follows: In vitro tube dilution test (MIC), Streptococcus pyogenes C203. Format: cell-based. The settings on record: 18-20 hours at 37° C. The method, then:
as §1, §2, §3

The next assay concerns ten screening organisms. The assay is described as follows: In vitro antibacterial tests against ten screening organisms (overall). Format: cell-based. The settings on record: in words. As to the method: as §1, §2, §3
The test system of assay [2] is Staphylococcus aureus (Smith). The assay is described as follows: In vitro tube dilution test (MIC), Staphylococcus aureus (Smith). Type of assay: cell-based. The settings on record: 18-20 hours at 37° C. The method, then: as §1, §2, §3
Another assay relates to Proteus mirabilis MGH-1. The assay is described as follows: In vitro tube dilution test (MIC), Proteus mirabilis MGH-1. Format: cell-based. The method, then:
as §1, §2, §3

For another assay, the system named is Candida albicans 10231. The assay is described as follows: In vitro tube dilution test (MIC), Candida albicans 10231. Format: cell-based. As to the method: as §1, §2, §3
For assay [3], the system named is Pseudomonas aeruginosa MGH-2. The assay is described as follows: In vitro tube dilution test (MIC), Pseudomonas aeruginosa MGH-2. Format: cell-based. The settings on record: 18-20 hours at 37° C. As to the method:
as §1, §2, §3

For assay [4], the system named is Escherichia coli (Vogel). The assay is described as follows: Mouse protection test, systemic Escherichia coli (Vogel) infection in mice. Type of assay: in vivo, Swiss Webster, female. The settings on record: for ED50 (the dose protecting 50% of the mice) / ED50: dosed 30 minutes after infection, 7 days; for ED50 (the dose protecting 50% of the mice): 10080 min; for ED50: Escherichia coli, 168 h, read-out: ED50 (the dose protecting 50% of the mice). The method, then: as §1
The parent nalidixic acid was solublized by adding 1.0 ml. of 1 N NaOH to the crystalline acid and water was added to a concentration of 1000 mcg./ml. for the in vitro study or saline to a concentration of 2.5 or 5.0 mg./ml. for the in vivo study. A stock solution of nalidixic acid 1,2-ethanediamine (1:1) salt was prepared from the 1:2 salt according to Example 5 above (refer to Solution 5B); in saline this solution has a concentration equivalent of the nalidixic acid of 47.6 mg./ml. for in vivo studies. A concentration equivalent of the acid of 1000 mcg./ml. for the in vitro studies was obtained by dilution of the stock solution.
Culture for In Vivo Study Escherichia coii (Vogel)
Mice White, Swiss Webster, female, […].
The E. coli culture was grown in Brain Heart Infusion broth at 37° C. for sixteen hours after which 0.1 ml. was removed and inoculated into 10 ml. of Brain Heart Infusion broth and incubated for five hours. […] All mice to be infected were inoculated intraperitoneally with 0.5 ml. of the inoculum.
After inoculation of the organism, the mice were divided into groups of ten. Medication was given to one group of mice at each dose level of each of the […] drugs by each of the three routes of administration. Two groups (twenty mice) were used as infection controls. The drugs were administered thirty minutes after the mice were infected. The dose of drug for i.v. injection was contained in 0.2 ml. Those for oral or subcutaneous administration were contained in 0.5 ml. The mice were examined and deaths were recorded for seven days after inoculation. The ED50 's (the dose protecting 50% of the mice) were calculated using a modified Reed and Muench method.

Assay [5] relates to Klebsiella pneumoniae 39645. The assay is described as follows: In vitro tube dilution test (MIC), Klebsiella pneumoniae 39645. Type of assay: cell-based. The settings on record: 18-20 hours at 37° C. As to the method: as §1, §2, §3
For assay [6], the system named is Trichophyton mentagrophytes 9129. The assay is described as follows: In vitro tube dilution test (MIC), Trichophyton mentagrophytes 9129. The settings on record: 120 h, molds read after five days at 25° C., read-out: Minimal Inhibitory Concentration. Format: cell-based. As to the method: as §1, §2, §3
For the next assay, the system named is Aspergillus niger 16404. The assay is described as follows: In vitro tube dilution test (MIC), Aspergillus niger 16404. Type of assay: cell-based. The settings on record: 120 h, molds read after five days at 25° C., read-out: Minimal Inhibitory Concentration. As to the method:
as §1, §2, §3

For assay [7], the system named is Escherichia coli (Vogel). The assay is described as follows: In vitro tube dilution test (MIC), Escherichia coli (Vogel). Type of assay: cell-based. The settings on record: 18-20 hours at 37° C., read-out: Minimal Inhibitory Concentration. The method, then: as §1, §2, §3
Setting [8] is: read-out: Minimal Inhibitory Concentration.

Converted amounts (≈) assume the structure as drawn. Structures can show the parent of a compound that is named as a salt. Where two headings read alike, the source gives them in different places.

`CCn1cc(C(=O)O)c(=O)c2ccc(C)nc21` [1,2-ED Salt, 1,2-ethanediamine (1:1) salt of nalidixic acid]: the “Minimal Inhibitory Concentration” value in the assay with Proteus vulgaris 9920 was 1.0 µg/mL; in assay [1], 250 µg/mL; in assay [2], 31.3 µg/mL; in the assay with Proteus mirabilis MGH-1 (18-20 hours at 37° C.) it was 15.6 µg/mL; with Candida albicans 10231, 500 µg/mL; in assay [3] (Pseudomonas aeruginosa MGH-2) it was 62.5 µg/mL. Also, in [5], the “Minimal Inhibitory Concentration” value came out at 31.3 µg/mL. Also, the “antibacterial activity in standard in vitro tests vs. parent nalidixic acid” value in the assay on ten screening organisms is reported as “as active antibacterially as the corresponding parent nalidixic acid”. Further, the “in vitro MIC's compared with MIC's of nalidixic acid” value in the assay with ten screening organisms (nine of the ten microorganisms) is “identical to the MIC's of nalidixic acid against nine of the ten microorganisms examined”. Further, the results for the “ED50 (the dose protecting 50% of the mice)” value in the assay with Escherichia coli (Vogel) [4] (Oral) and in the assay with Escherichia coli (Vogel) [4] (Subcutaneous) were 18.9 mg./kg./dose and 17.6 mg./kg./dose, respectively. Further, the “ED50 's compared with nalidixic acid in the mouse protection test” value in the assay on Escherichia coli (Vogel) [4] (in words) is “no significant differences”. Also, the “antibacterial activity against in vivo bacterial infections in mice vs. parent nalidixic acid” value with Escherichia coli (Vogel) [4] (in words) is “as active antibacterially as the corresponding parent nalidixic acid”.
Turning to `CCn1cc(C(=O)O)c(=O)c2ccc(C)nc21` [nalidixic acid, 1-ethyl-1,4-dihydro-7-methyl-4-oxo-1,8-naphthyridine-3-carboxylic acid], the MIC in the assay with Proteus vulgaris 9920 (setting [8]) is 1 µg/mL (≈ 4.31 µM); in assay [6], 500 µg/mL (≈ 2150 µM); in the assay with Aspergillus niger 16404 it was 500 µg/mL (≈ 2150 µM); in [1] (setting [8]) it was 250 µg/mL (≈ 1080 µM); in assay [2] (setting [8]), 31.3 µg/mL (≈ 135 µM); in the assay with Escherichia coli (Vogel) [7], 3.9 µg/mL (≈ 16.8 µM). Also, the MIC was 15.6 µg/mL (≈ 67.2 µM) in the assay with Proteus mirabilis MGH-1 (MGH1, 18-20 hours at 37° C., read-out: Minimal Inhibitory Concentration); 500 µg/mL (≈ 2150 µM) with Candida albicans 10231 (setting [8]); 125 µg/mL (≈ 538 µM) in [3] (Pseudomonas aeruginosa, MGH2, Pseudomonas aeruginosa MGH-2, read-out: Minimal Inhibitory Concentration); 31.3 µg/mL (≈ 135 µM) in assay [5] (setting [8]). Moreover, the ED50 in the assay with Escherichia coli (Vogel) [4] (iv, Intravenous) came to 17.6 mg/kg; in the assay with Escherichia coli (Vogel) [4] (po, Oral) it was 16.5 mg/kg; in the assay on Escherichia coli (Vogel) [4] (sc, Subcutaneous) it was 14 mg/kg.

In general, ED50 refers to the dose at which the effect has come halfway, by size or by number of responders.

These data come from patent publication US4207418A, “1,2-Ethanediamine salts of nalidixic acid” (Sterling Drug Inc., priority 1978, dated 1980).
